The target of assay [1] is T1, recombinant human Cyp19 enzyme (aromatase) (Homo sapiens, UniProt P11511).
T1 construct: purchased Becton Dickinson Biosciences, San Jose, Calif., USA
T1 sequence (P11511 1-503): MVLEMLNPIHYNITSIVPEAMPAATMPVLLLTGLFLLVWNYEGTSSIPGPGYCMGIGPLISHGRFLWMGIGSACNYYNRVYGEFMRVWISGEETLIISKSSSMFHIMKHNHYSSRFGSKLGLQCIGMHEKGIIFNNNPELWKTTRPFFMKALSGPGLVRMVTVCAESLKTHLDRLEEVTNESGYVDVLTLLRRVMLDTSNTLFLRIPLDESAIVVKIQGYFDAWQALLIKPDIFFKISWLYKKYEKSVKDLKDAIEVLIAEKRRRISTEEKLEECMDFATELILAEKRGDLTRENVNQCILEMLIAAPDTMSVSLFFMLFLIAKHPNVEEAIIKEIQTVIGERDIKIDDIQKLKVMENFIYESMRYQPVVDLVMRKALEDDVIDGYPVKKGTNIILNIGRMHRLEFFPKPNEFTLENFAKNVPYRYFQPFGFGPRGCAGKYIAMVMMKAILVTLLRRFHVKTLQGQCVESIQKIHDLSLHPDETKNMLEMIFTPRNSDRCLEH
Description: Cyp19/MFC high throughput aromatase inhibition kit. Format: biochemical. The procedure: The compounds of the formula (I′) have at least one asymmetric carbon atom, which is labelled “*”. A compound of the formula (I′) is to be understood as a compound having a specific configuration around the designated asymmetric carbon atom. If a synthesis method is used which leads to racemic compounds, the racemate resolution is carried out in accordance with conventional methods, such as via a chiral HPLC column. […] The aforementioned aromatase inhibitory activity can, as the skilled worker is well aware and as described below, be comfortably determined via the commercial Cyp19 enzyme inhibition kit (vide infra). In the abovementioned inhibition kit, compounds of the formula (I′) have an activity which is at least 10 times lower, preferably 20 times lower than the compounds of the formula (I′) with the opposite configuration around the asymmetric carbon atom labelled “*”.
The enzyme aromatese (CYP19) mediates the rate-limiting step of estrogen biosynthesis in human and rodent species. As estrogens control the sexual characteristics and reproduction as well as various structural and functional tissue features, compounds intended for the herein disclosed therapeutic use should at therapeutic dose levels show no or only minor interference with aromatase.
The concentration-dependent interference of the compounds with aromatase can be measured in vitro using a commercial Cyp19 enzyme inhibition kit and the manufacturer's instructions.
The Cyp19/methoxy-4-trifluoromethyl-coumarin (MFC) high throughput inhibition kit (Becton Dickinson Biosciences, San Jose, Calif., USA), for example, is designed to screen for potential inhibitors of Cyp19 catalytic activity in a 96-well format. The kit includes recombinant human Cyp19 enzyme in the form of supersomes, a fluorescent P450 substrate, an NADPH regenerating system, a reaction buffer and a stop reagent. MFC, the fluorogenic substrate is rapidly converted by Cyp19 supersomes to the highly fluorescent product 7-hydroxy-4-trifluoromethyl coumarin (7-HFC). The execution of the assay in the presence of various concentrations of inhibitor compounds ranging from 0.2 nanomolar to […] occurs according to the manufacturer's instructions. The concentration-dependent inhibition of aromatase activity can be quantified using the equation described above for the in vitro testing of aldosterone synthase inhibition in NCI-H295R cells to generate IC50 values (inhibitory concentration in mol/l yielding 50% of the maximal inhibition).

The target of assay [2] is T2, aldosterone synthase (CYP11B2) (Rattus norvegicus, UniProt P30099).
T2 construct: from tissue; host or cells: live Wistar rat (adrenal gland, zona glomerulosa)
T2 sequence (P30099 35-510): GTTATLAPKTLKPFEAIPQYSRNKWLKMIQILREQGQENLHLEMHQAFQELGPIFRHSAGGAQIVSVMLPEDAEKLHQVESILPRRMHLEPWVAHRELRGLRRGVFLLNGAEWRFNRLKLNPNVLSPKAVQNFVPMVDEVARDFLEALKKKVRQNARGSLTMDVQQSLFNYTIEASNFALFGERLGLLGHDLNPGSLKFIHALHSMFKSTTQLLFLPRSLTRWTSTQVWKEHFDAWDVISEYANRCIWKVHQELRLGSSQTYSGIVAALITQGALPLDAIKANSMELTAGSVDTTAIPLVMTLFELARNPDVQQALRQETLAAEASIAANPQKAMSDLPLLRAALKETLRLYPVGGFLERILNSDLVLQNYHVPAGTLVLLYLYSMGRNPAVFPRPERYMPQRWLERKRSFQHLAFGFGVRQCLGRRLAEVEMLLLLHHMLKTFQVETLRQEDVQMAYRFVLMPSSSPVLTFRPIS
In words: Suppression of plasma aldosterone levels in ACTH-stimulated rats. To be noted: 4 mg/kg p.o., 2 h after dosing vs 1 h before dosing. Format: in vivo, Wistar rats. The procedure: The target efficacy of the compounds disclosed in the present invention to dose-dependently suppress aldosterone levels in vivo may be assessed with the following protocol:
(§1) Adult male Wistar rats weighing between 250 and 350 grams are kept under the usual 12-hour light and 12-hour dark conditions at a temperature of 23° C.±2° C. On the first day of the experiment, the animals receive a subcutaneous injection of a depot ACTH product in a dose of 1.0 mg/kg weight (SYNACTHEN-Depot, Novartis, Basel, CH) 16 hours prior to the administration of a test compound. […] An alternative method to stimulate aldosterone secretion consists in subjecting rats to a low salt diet for 48 hours and applying the diuretic furosemide at 10 mg/kg by subcutaneous or intraperitoneal administration 16 hours, respectively 2 hours prior to the start of the experiment. […] The aldosterone concentrations of the plasma samples can be determined with a radioimmunoassay as described above for the in vitro test systems. […]
The selective suppression of plasma steroid levels as for instance aldosterone in comparison to corticosterone may serve as a measure for in vivo bioavailability and pharmacodynamic enzyme inhibitory activity of the herein described compounds. The evaluation of the data may occur relative to the application of vehicle or quantitatively by determination of the area under the curve (AUC).

Assay [3] deals with T3, 11beta hydroxylase (CYP11B1) (Rattus norvegicus, UniProt P15393).
T3 construct: from tissue; host or cells: live Wistar rat (adrenal gland)
T3 sequence (P15393 25-499): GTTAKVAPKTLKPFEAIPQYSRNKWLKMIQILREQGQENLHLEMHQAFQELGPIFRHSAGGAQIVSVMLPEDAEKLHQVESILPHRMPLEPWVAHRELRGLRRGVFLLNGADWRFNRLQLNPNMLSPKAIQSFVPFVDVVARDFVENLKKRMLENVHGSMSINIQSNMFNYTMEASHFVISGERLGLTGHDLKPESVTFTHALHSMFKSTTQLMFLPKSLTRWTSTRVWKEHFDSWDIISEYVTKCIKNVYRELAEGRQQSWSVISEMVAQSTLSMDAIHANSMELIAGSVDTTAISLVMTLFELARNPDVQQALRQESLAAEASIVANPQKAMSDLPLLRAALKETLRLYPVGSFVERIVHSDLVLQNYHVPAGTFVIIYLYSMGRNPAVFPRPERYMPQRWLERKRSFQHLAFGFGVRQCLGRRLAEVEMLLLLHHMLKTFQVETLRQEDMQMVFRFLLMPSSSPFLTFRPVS
In words: Suppression of plasma corticosterone levels in ACTH-stimulated rats. The note with it: 4 mg/kg p.o., 2 h after dosing vs 1 h before dosing. Format: in vivo, Wistar rats. The method, then: as §1, with “experiment. On the second day of the experiment, the animals are divided into test groups of 5 animals and subjected to a first bleed 1 hour prior to the administration of test compound.” for “experiment.”
The selective suppression of plasma steroid levels as for instance aldosterone in comparison to corticosterone may serve as a measure for in vivo bioavailability and pharmacodynamic enzyme inhibitory activity of the herein described compounds. The evaluation of the data may occur relative to the application of vehicle or quantitatively by determination of the area under the curve (AUC). […]

Where [4] appears, read: enantiomers with differing aromatase inhibition, read-out: IC50 value (aromatase inhibition, enantiomers).
[5] abbreviates: average of several measurements, read-out: IC50 value (aromatase inhibition).

Results on four compounds are retold here after patent US8324235B2, “Heterocyclic spiro-compounds” (Novartis AG, priority 2007, dated 2012).

Like-named read-outs stand apart in the source and are kept apart here.

As usually defined, the IC50 is the concentration at which inhibition is half-maximal. On to `N#Cc1ccc2c(c1)COC21CCn2cncc21` (single isomer, unassigned) [Example 23, (1S) or (1R)-5′,6′-Dihydro-3H-spiro[2-benzofuran-1,7′-pyrrolo[1,2-c]imidazole]-5-carbonitrile], for which the IC50 in assay [1] (setting [4]) was found to be 922 nM.

Turning to `N#Cc1ccc2c(c1)COC21CCn2cncc21` (single isomer, unassigned) [antipode of 23], the IC50 in assay [1] (setting [4]) came out at 31.8 nM.

`N#Cc1ccc2c(c1)COC21CCCn2cncc21` (centres unmarked) [Example 1, 6′,7′-Dihydro-3H,5′H-spiro[2-benzofuran-1,8′-imidazo[1,5-a]pyridine]-5-carbonitrile]: the IC50 in assay [1] (setting [5]) worked out at 64.6 nM. In addition, the “Aldosterone levels (% change at 2 h)” value in assay [2] is −67.6%. Moreover, the “Corticosterone levels (% change at 2 h)” value in assay [3] is given as −7.7%.

As to `N#Cc1ccc2c(c1)C1(CCCn3cncc31)OC2` (centres unmarked) [Example 4, 6′,7′-Dihydro-3H,5′H-spiro[2-benzofuran-1,8′-imidazo[1,5-a]pyridine]-6-carbonitrile], in assay [1] (setting [5]), the IC50 came to 406 nM. In assay [2], the “Aldosterone levels (% change at 2 h)” value is recorded as −50.2%. Further, the “Corticosterone levels (% change at 2 h)” value in assay [3] amounted to 0.9%.
